These results are taken from patent US5223517A, “Heterocyclically substituted cycloalkano[b]-indolesulphonamides” (Bayer Aktiengesellschaft, priority 1990, dated 1993).

Counter-ions that a name gives are not always drawn.

One test relates to platelet aggregation (platelet-rich citrate plasma, collagen). Put plainly: platelet aggregation-inhibiting action (TAI), collagen-induced, platelet-rich plasma, turbidometric method. In kind it is cell-based. To be noted: Homo sapiens, 0.1 h, range of the minimum effective concentration, PRP, 37° C., result after 6 minutes, read-out: TAI threshold concentration. The source says:
Blood from healthy subjects of both sexes was used for the determination of the platelet aggregation-inhibiting action. As an anticoagulant, one part of 3.8% strength aqueous sodium citrate solution was admixed to 9 parts of blood. Platelet-rich citrate plasma (PRP)^1 is obtained from this blood by means of centrifugation (Jurgens/Beller, Klinische Methoden der Blutgerinnungsanalyse (Clinical Methods of Blood Coagulation Analysis); Thieme Verlag, Stuttgart, 1959).
For these investigations, 0.8 ml of PRP and 0.1 ml of the active compound solution were preincubated in a water bath at 37° C. The platelet aggregation was then determined by the turbidometric method (Born, G. V. R., J. Physiol. (London), 162, 67, 1962) in an aggregometer at 37° C. (Therapeutische Berichte 47, 80-86, 1975). To this end, 0.1 ml of collagen, an aggregation-inducing agent, was added to the preincubated sample. The change in the optical density in the sample of PRP^1 was recorded during a period of 6 minutes and the results was determined after 6 minutes. To do this, the percentage inhibition is calculated compared to the control.
The range of the minimum effective concentration is given as the threshold concentration.
Turning to `O=C(O)CCn1c2c(c3cc(CCc4cccnc4)ccc31)CC(NS(=O)(=O)c1ccc(F)cc1)CC2` (stereo not shown) [Example 17], the minimal effective concentration lay in the range of 0.03 to 0.1 µg/mL. Regarding `O=C(O)CCn1c2c(c3c(Cc4cccnc4)cccc31)CC(NS(=O)(=O)c1ccc(F)cc1)CC2` (stereo not shown) [Example 18], the minimal effective concentration lay within 0.3 to 1 µg/mL. Still for that read-out and setting: the same measure for `O=C(O)CCn1c2c(c3cc(C(=O)CCc4cccnc4)ccc31)CC(NS(=O)(=O)c1ccc(F)cc1)CC2` (stereo not shown) [Example 20]: 0.03 to 0.1 µg/mL; for `O=C(O)CCn1c2c(c3cc(OCc4ccccn4)ccc31)CC(N(Cc1ccccn1)S(=O)(=O)c1ccc(F)cc1)CC2` (stereo not shown) [Example 25]: 0.03 to 0.1 µg/mL.

The next test deals with T1, thromboxane synthase (Homo sapiens, UniProt P24557).
T1 construct: 1 ml of the platelet suspension and 0.01 ml of the test preparation in 10% DMSO are incubated at 37° C. for 2 min; endogenous in cells; host or cells: washed human platelets from blood of healthy donors
T1 sequence (P24557 1-533): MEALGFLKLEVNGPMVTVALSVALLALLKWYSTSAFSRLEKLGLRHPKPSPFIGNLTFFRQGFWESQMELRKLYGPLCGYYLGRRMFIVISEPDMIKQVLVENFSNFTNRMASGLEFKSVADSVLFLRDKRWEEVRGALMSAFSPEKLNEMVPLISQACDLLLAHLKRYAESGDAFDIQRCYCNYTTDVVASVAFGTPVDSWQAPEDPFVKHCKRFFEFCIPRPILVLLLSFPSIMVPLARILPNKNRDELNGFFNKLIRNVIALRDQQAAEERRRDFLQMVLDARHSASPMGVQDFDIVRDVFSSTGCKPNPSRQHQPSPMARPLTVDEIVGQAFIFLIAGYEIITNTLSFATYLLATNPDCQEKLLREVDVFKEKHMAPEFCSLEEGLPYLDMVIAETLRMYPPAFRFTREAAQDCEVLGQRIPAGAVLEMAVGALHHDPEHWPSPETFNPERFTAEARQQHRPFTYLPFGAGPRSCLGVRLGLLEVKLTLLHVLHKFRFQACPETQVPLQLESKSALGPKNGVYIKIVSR
In words: Measurement of the thromboxane synthase in washed human platelets. It is filed as cell-based. To be noted: 3H-arachidonic acid, 37° C., 10 min, read-out: IC50 (50% inhibition of thromboxane formation compared to the control).
By IC50 is commonly meant the midpoint of a concentration-inhibition curve. Turning to `O=C(O)CCn1c2c(c3cc(Cc4cccnc4)ccc31)CC(NS(=O)(=O)c1ccc(F)cc1)CC2` (stereo not shown) [Example 11, 9-(2-Carboxyethyl)-3-(4-fluorophenylsulphonamido)-6-(3-pyridyl-methyl)-1,2,3,4-tetrahydro-carbazole hydrochloride], the IC50 worked out at 200 nM.

Turning to `O=C(O)CCn1c2c(c3cc(CCc4cccnc4)ccc31)CC(NS(=O)(=O)c1ccc(F)cc1)CC2` (stereo not shown) [Example 17], the IC50 turned out to be 1000 nM. The same measure, in the same setting: in the case of `O=C(O)CCn1c2c(c3ccc(-c4cccnc4)cc31)CC(NS(=O)(=O)c1ccc(F)cc1)CC2` (stereo not shown) [Example 24] it was 100 nM.
